Where two headings read alike, the source gives them in different places.

This assay has as its system U-373MG cells. Format: cell-based, human.

In the case of `O=c1c(-c2ccc(O)cc2)coc2cc(O)cc(O)c12` [Genistein, genistein], the “effect on the difference in plaque size between VSV-rp30 and VSV-G/GFP” value (“effect on the difference” for short) (10 μM, 24 hrs) is “significantly attenuated the difference in plaque size”. In the case of `CN[C@@H]1C[C@H]2O[C@@](C)([C@@H]1OC)n1c3ccccc3c3c4c(c5c6ccccc6n2c5c31)C(=O)NC4` [Staurosporine, staurosporine], the “effect on the difference” value is “significant attenuation of the difference in plaque size”. As for tyrphostin 51, the “effect on the difference” value is reported as “no significant effect on the difference in plaque size”.

Values taken from patent US8481297B2 (priority 2009, dated 2013).
